The source of these data is article PMC12040169 (PLOS Biology, 2025).

The data set is described as follows: in vitro. The following applies: human, hela cells, % viability.

Take `CCn1c(=O)oc2cc(NC(=O)NCCCc3csc(N)n3)ccc21` [CBK307633]: the viability at 28.5 h, 10 µM turned out to be 79.7%. In the case of `O=c1c2c(nc(SCCc3ccccc3)n1CCc1ccccc1)-c1ccccc1CC21CCCCC1` [CBK262661], the viability at 28.5 h, 10 µM is 86.8%. The same measure, in the same setting: next, `COc1cccc(-c2noc(C3CCN(CCc4ccc(F)cc4)CC3)n2)c1` [CBK051461]: 121%.

As to `CN(c1ccc(C(=O)Nc2ccc(S(=O)(=O)N3CCOCC3)cc2)cc1)S(=O)(=O)c1ccccc1` [CBK264129], the viability at 28.5 h, 10 µM was 96.7%.

In the case of `O=C(NCCc1c[nH]c2ccc(Cl)cc12)c1ccoc1` [CBK159782], the viability at 28.5 h, 10 µM worked out at 97.9%. Consider `O=C(NCc1csc(-c2ccccc2)n1)C(F)(F)F` [CBK092340], for which the viability at 28.5 h, 10 µM worked out at 102%.

For the molecule `Cn1ccnc1C(O)(c1ccccc1)c1nccn1C` [CBK262084], the viability at 28.5 h, 10 µM turned out to be 97.6%.

Consider `COc1ccc(-c2ccc3c(c2)OC2(CCN(C(=O)c4cc(OC)c(C)c(OC)c4)CC2)CC3=O)cn1` [CBK169424], for which the viability at 28.5 h, 10 µM is 107%.

Turning to `O=C(Nc1ccccc1C(=O)O)c1cccc(C(=O)Nc2ccccc2C(=O)O)c1` [CBK261166], the viability at 28.5 h, 10 µM is 105%. `COc1ccccc1-c1cn2ccnc2c(N(C)CCN(C)C)n1` [CBK066156]: the viability at 28.5 h, 10 µM turned out to be 97.5%.

For `COc1ccc(C2N(N3C(=O)CC(=O)NC3=O)C(=O)CS2(=O)=O)cc1OC` (stereo not shown) [CBK012702], the viability at 28.5 h, 10 µM was 94.8%. Consider `c1cn2cnnc2c(N2CCOC(c3ccsc3)C2)n1` (stereo not shown) [CBK306379], for which the viability at 28.5 h, 10 µM turned out to be 88.8%.

In the case of `Cc1cc(CNC(=S)Nc2ccc(S(N)(=O)=O)cc2)nn1C` [CBK267077], the viability at 28.5 h, 10 µM was determined as 98.7%. On the same count and under the same terms, next, `O=C(NCCc1ccc(Cl)cc1)C1CCN(C(=O)c2ccc3nsnc3c2)C1` (stereo not shown) [CBK285553]: 95.2%; `C[C@H](c1ccccc1)n1c(=O)[nH]c2ncc(-c3ccco3)nc21` [CBK064415]: 98.1%. On the same count and under the same terms, next, `CCOc1cc(CCC(=O)NC(C)c2ccccc2)on1` (stereo not shown) [CBK282597]: 82.3%; `COc1ccc(-c2cc(C(F)(F)F)nc(SCC(=O)N3CCN(C)CC3)n2)cc1OC` [CBK266194]: 96.1%. The same measure, in the same setting: next, `CCN(CC)C(=O)C1CCCN(C(=O)Nc2ccc(N(CC)CC)cc2)C1` (stereo not shown) [CBK156139]: 94.4%; `Cc1cc(C)nc(NC2=NC3CCCCC3N2C(=O)Nc2ccc(Cl)c(Cl)c2)n1` (stereo not shown) [CBK266458]: 97.5%; `Cc1n[nH]c(C)c1Sc1ccccc1/N=C/c1ccc(C(=O)O)cc1` [CBK262055]: 86.9%. Consider `CC(C)(O)C#Cc1ccc(C(=O)N2CCC(C(N)=O)(N3CCCCC3)CC2)cc1` [CBK264065], for which the viability at 28.5 h, 10 µM was determined as 97.3%. In the case of `CCC(CC)C(=O)N(C)c1c(C)nc2ccc(C(=O)N3CCN(S(=O)(=O)CC)CC3)cn12` [CBK146524], the viability at 28.5 h, 10 µM worked out at 92%. Consider `O=c1c2ccccc2nc(CSc2[nH]cnc3ncnc2-3)n1-c1ccc(Cl)c(Cl)c1` [CBK217854], for which the viability at 28.5 h, 10 µM turned out to be 93.9%.

Consider `Nc1ccccc1SC(CC(=O)c1ccccc1)c1ccc2c(c1)OCO2` (stereo not shown) [CBK074823], for which the viability at 28.5 h, 10 µM came to 80.2%. On the same count and under the same terms, in the case of `CCN(Cc1ncc[nH]1)[C@H]1CCO[C@@H](c2ccccc2-c2ccc(OC)cc2)C1` [CBK285842] it was 104%; in that of `Cc1nn(C)c(C)c1CC(=O)Nc1cccc(CN2CCCCC2)c1` [CBK304547], 87.4%; in that of `O=C(NCc1ccc(Cl)c(Cl)c1)N1CCCCC1CO` (stereo not shown) [CBK156164], 113%. `COc1cc(CNc2cncc(-c3ccc4c(c3)OCO4)n2)cc(OC)c1OC` [CBK065922]: the viability at 28.5 h, 10 µM came to 99.5%. Regarding `Cc1cc(Cl)c(S(=O)(=O)N(C)C)cc1OCC(=O)Nc1ccccc1` [CBK269705], the viability at 28.5 h, 10 µM was 89%. Turning to `O=C(CCOc1ccccc1)Nc1cncc(OC2CCNCC2)n1` [CBK026734T], the viability at 28.5 h, 10 µM worked out at 95.2%. Same read-out and setting: next, `Cc1ccc(-c2nc3ccccc3[nH]2)cc1NC(=O)COc1cccc([N+](=O)[O-])c1` [CBK265932]: 94.3%; `Oc1ccc(-c2n[nH]c(=S)n2-c2ccccc2)cc1` [CBK014887]: 113%; `Cc1cc(OC(C)C(=O)NCc2ccccn2)ccc1Cl` (stereo not shown) [CBK269617]: 110%. Consider `CN(Cc1cccc2ncccc12)C(=O)c1cc(C2CC2)nn1C` [CBK282537], for which the viability at 28.5 h, 10 µM stood at 108%. With `C=C(C)CN1CCN(Cc2cnn(C3CCCCC3)c2)CC1` [CBK282828], the viability at 28.5 h, 10 µM is 98.9%. As to `CC(C)Nc1ncnc2scc(-c3cccs3)c12` [CBK017085], the viability at 28.5 h, 10 µM turned out to be 85.9%. With `CC1CCCN(C(=O)c2ccc(-n3ccnc3)c(-n3cccc3)c2)C1` (stereo not shown) [CBK285370], the viability at 28.5 h, 10 µM came out at 95.1%.

On to `CC(=O)Nc1ccc(S(=O)(=O)NC2(C(F)(F)F)NC(=O)N(C3CCCC3)C2=O)cc1` (stereo not shown) [CBK268100], for which the viability at 28.5 h, 10 µM is 84.6%. As to `Cc1nc(CCNC(=O)C2CC(c3cccc(F)c3)=NO2)cs1` (stereo not shown) [CBK305798], the viability at 28.5 h, 10 µM came out at 106%. In the case of `c1ccc2c(c1)OCC(c1nn3cnnc3s1)O2` (stereo not shown) [CBK269277], the viability at 28.5 h, 10 µM came out at 111%. Same read-out and setting: in the case of `C=Cn1ncc(CN2CCC3(O)CCCCC3C2)c1C` (stereo not shown) [CBK283302] it was 94.5%; in that of `COc1cc(CN2CCN(C/C=C/c3ccccc3)CC2)cc(I)c1O` [CBK261882], 91.7%. Take `O=C(O)c1cccc(-n2c(S)nnc2-c2cnccn2)c1` [CBK269252]: the viability at 28.5 h, 10 µM was 104%.

As to `O=C(c1ccc2ncccc2c1)N1CCC2(CCN(C(=O)c3cc(F)c(F)cc3F)C2)C1` (stereo not shown) [CBK131391], the viability at 28.5 h, 10 µM was determined as 91%.

With `COc1ccc(CCCC(=O)NC2CCCCC2C)cc1` (stereo not shown) [CBK026124], the viability at 28.5 h, 10 µM was 94.3%. `COc1nccnc1OC1CCN(CC(=O)Nc2c(C)cccc2C)CC1` [CBK084249]: the viability at 28.5 h, 10 µM stood at 96.1%. On the same count and under the same terms, next, `COc1cc(NC(=O)CC2SC(NC3CCCCC3)=NC2=O)c(OC)cc1Cl` (stereo not shown) [CBK059497]: 96.2%. Consider `COc1cc(C)c(NC(=O)c2cnc(-c3ccc(F)cc3)c(-c3ccncc3)c2)cc1OC` [CBK036575], for which the viability at 28.5 h, 10 µM stood at 97.5%. `COCCN1CCN(C(=O)[C@@H]2Cc3c[nH]c4cccc(c34)[C@H](CC(C)C)N2)CC1` [CBK289419]: the viability at 28.5 h, 10 µM was 84.5%. As to `CCN1CCN(Cc2cc(Br)c(OC)cc2OC)CC1` [CBK261566], for the setting “bulk resorufin, single well”, the viability at 28.5 h, 10 µM was 103%. Turning to `Cc1ccc(C)c2[nH]c(=O)c(CN(Cc3cccnc3)C(=O)NC3CCCCC3)cc12` [CBK068091], the viability at 28.5 h, 10 µM was found to be 98.2%. The same measure, in the same setting: in the case of `CC(=O)c1ccc(-c2cnc(N)c(N3CCC[C@@H]3CO)n2)s1` [CBK063438] it was 97.9%; in that of `O=C(NCc1ccc(-c2csnn2)cc1)c1c(F)cccc1F` [CBK149310], 86%; in that of `O=C(O)c1ccccc1-c1ccccc1C(=O)Nc1ccc(O)cc1` [CBK286602], 85.1%. `COc1ccc(OC)c(Nc2nc(NCC3CCCO3)c3ccccc3n2)c1` (stereo not shown) [CBK268403C]: the viability at 28.5 h, 10 µM was determined as 90.9%. For `COc1ccccc1-c1ccc(NC(=O)C2(c3cccc(F)c3)CCOCC2)cc1` [CBK285747], the viability at 28.5 h, 10 µM stood at 103%. The same measure, in the same setting: in the case of `CCCN(CC1CC1)C1CCc2cccc(C(N)=O)c2C1` (stereo not shown) [CBK016579] it was 114%; in that of `FC(F)(F)c1ccc(CN2CCCN(c3ccnc(OCC4COc5ccccc5O4)n3)CC2)cc1` (stereo not shown) [CBK083233T], 93%. With `CC1(C)CCCC2=C1CC(C(=O)O)C(C(=O)O)C2` (stereo not shown) [CBK272329], the viability at 28.5 h, 10 µM was 97.4%. For the molecule `CC(=O)c1ccc(N2CCN(Cc3cc(C(C)(C)C)c(O)c(C(C)(C)C)c3)CC2)cc1` [CBK261749], the viability at 28.5 h, 10 µM was determined as 87.2%. The same measure, in the same setting: next, `COc1cc(CNCCO)cc(Br)c1OCc1cccnc1` [CBK269681C]: 100%.

Regarding `NC(=O)CC1C(=O)N(c2ccc(F)cc2)C(=S)N1NC(=O)CCc1ccccc1` (stereo not shown) [CBK268978A], the viability at 28.5 h, 10 µM was 108%.

As for `FC(F)(F)c1nc2ccccc2nc1Sc1ccccn1` [CBK093781], the viability at 28.5 h, 10 µM amounted to 89%. The same measure, in the same setting: next, `COc1ccc2[nH]c(=O)c(CN(CCN(C)C)C(=S)Nc3ccc(F)cc3)cc2c1` [CBK135011]: 97.1%. The same measure, in the same setting: next, `O=C(NC1CCCC1)c1ccc2c(=O)[nH]cnc2c1` [CBK287990]: 90.1%; `CCCc1ccc(N(C)C(=O)c2ccc(OCC)cc2)cc1` [CBK161615]: 107%; `COCCn1c(CN2CCCC(C)C2)nc2c1c(=O)n(C)c(=O)n2C` (stereo not shown) [CBK306063]: 108%. On to `Cn1ncc2c(=O)n(Cc3noc(-c4ccsc4)n3)cnc21` [CBK305056], for which the viability at 28.5 h, 10 µM was found to be 99%.

Turning to `Cc1ccccc1OCc1nn2c(COc3ccccc3)nnc2s1` [CBK267230], the viability at 28.5 h, 10 µM is 85.4%. On the same count and under the same terms, next, `Cc1cccc(OCCNC(=O)CN2CCCC2Cn2cncn2)c1` (stereo not shown) [CBK305345]: 102%. On the same count and under the same terms, next, `Cc1ncsc1C(=O)N1CCN(Cc2ccco2)C[C@@H]1C(C)C` [CBK285486]: 101%; `COc1cccc(COc2cnc(-c3ccccc3)c(N)n2)c1OC` [CBK145066]: 101%. With `CC(C)(C)N(Cc1ccccc1)C(=O)Cn1nc(C(=O)O)c2ccccc2c1=O` [CBK297498], the viability at 28.5 h, 10 µM is 86%. As to `Cc1noc(C)c1NC(=O)c1cc2ccccc2n1C` [CBK200311], the viability at 28.5 h, 10 µM was determined as 108%.

For `O=S(=O)(Nc1nnn[nH]1)c1csc2ccccc12` [CBK062590], the viability at 28.5 h, 10 µM is 103%. As for `Cc1ccc(C(=O)N2C3CCC2CC(O)(c2cccnc2F)C3)o1` (stereo not shown) [CBK284423], the viability at 28.5 h, 10 µM is 104%. Still for that read-out and setting: next, `O=C(c1cc(F)c(F)cc1F)N1CCC2(CCN(C(=O)C3COc4ccccc4O3)C2)C1` (stereo not shown) [CBK131390]: 107%; `CN1C[C@@H](NC(=O)c2cccnc2)C[C@H]1c1nc(-c2cccnc2)no1` [CBK288857]: 86.7%. The same measure, in the same setting: in the case of `Cc1ncccc1COC(=O)N1CCSCC1` [CBK200156] it was 104%.
